In PubChem BioAssay AID328 (DTP/NCI, 2004):
Several values for one entry are separate records, joined by “and”; a condition that tells them apart may be missing. Identical values can stand only once. Inconclusive results and toxic doses are left out.

System: BDF1 mice, P388 leukemia ip, median survival T/C
Assay: NCI In Vivo Anticancer Drug Screen. Data for tumor model P388 Leukemia (intraperitoneal) in B6D2F1 (BDF1) mice
Settings: endpoint: median survival time, vehicle: Klucel (hydroxypropylcellulose) (HPC), higher = longer survival
Outline: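 Survival ratio, drug arm over vehicle arm, in mice with a transplanted tumour.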

**Q.** Which T/C (dose: 0.03 mg/kg/injection, schedule: Q04DX003 (ip)) does the source give for `O=NN(CCCl)C(=O)Nc1ccc(NC(=O)N(CCCl)N=O)cc1` here?
**A.** 100 % of control

**Q.** What about the T/C (dose: 0.06 mg/kg/injection, schedule: Q04DX003 (ip)) of the same compound?
**A.** 108 % of control

**Q.** What about the T/C (dose: 0.12 mg/kg/injection, schedule: Q01DX009 (ip)) of the same compound?
**A.** 111 % of control

**Q.** What about the T/C (dose: 0.12 mg/kg/injection, schedule: Q04DX003 (ip)) of the same compound?
**A.** 108 % of control

**Q.** And the T/C (dose: 0.25 mg/kg/injection, schedule: Q01DX009 (ip))?
**A.** 177 % of control

**Q.** What about the T/C (dose: 0.25 mg/kg/injection, schedule: Q04DX003 (ip)) of the same compound?
**A.** 150 % of control

**Q.** And the T/C (dose: 0.5 mg/kg/injection, schedule: Q01DX009 (ip))?
**A.** 222 % of control

**Q.** And the T/C (dose: 0.5 mg/kg/injection, schedule: Q04DX003 (ip))?
**A.** 154 % of control

**Q.** What about the T/C (dose: 0.6 mg/kg/injection, schedule: Q04DX003 (ip)) of the same compound?
**A.** 117 % of control

**Q.** And the T/C (dose: 1.0 mg/kg/injection, schedule: Q01DX009 (ip))?
**A.** 94 % of control

**Q.** What about the T/C (dose: 1.0 mg/kg/injection, schedule: Q04DX003 (ip)) of the same compound?
**A.** 204 % of control

**Q.** What about the T/C (dose: 1.5 mg/kg/injection, schedule: Q01DX009 (ip)) of the same compound?
**A.** 254 % of control

**Q.** What about the T/C (dose: 1.6 mg/kg/injection, schedule: Q04DX003 (ip)) of the same compound?
**A.** 152 % of control

**Q.** And the T/C (dose: 2.0 mg/kg/injection, schedule: Q04DX003 (ip))?
**A.** 186 % of control

**Q.** And the T/C (dose: 2.5 mg/kg/injection, schedule: Q04DX003 (ip))?
**A.** 160 % of control and 175 % of control

**Q.** What about the T/C (dose: 3.0 mg/kg/injection, schedule: Q01DX009 (ip)) of the same compound?
**A.** 231 % of control

**Q.** And the T/C (dose: 3.0 mg/kg/injection, schedule: Q04DX003 (ip))?
**A.** 186 % of control

**Q.** And the T/C (dose: 4.0 mg/kg/injection, schedule: Q04DX003 (ip))?
**A.** 187 % of control

**Q.** And the T/C (dose: 6.0 mg/kg/injection, schedule: Q01DX009 (ip))?
**A.** 272 % of control

**Q.** What about the T/C (dose: 6.0 mg/kg/injection, schedule: Q04DX003 (ip)) of the same compound?
**A.** 227 % of control and 187 % of control and 213 % of control

**Q.** And the T/C (dose: 9.0 mg/kg/injection, schedule: Q04DX003 (ip))?
**A.** 190 % of control

**Q.** What about the T/C (dose: 12.0 mg/kg/injection, schedule: Q04DX003 (ip)) of the same compound?
**A.** 213 % of control

**Q.** What about the T/C (dose: 12.5 mg/kg/injection, schedule: Q01DX009 (ip)) of the same compound?
**A.** 300 % of control

**Q.** And the T/C (dose: 13.0 mg/kg/injection, schedule: Q04DX003 (ip))?
**A.** 231 % of control and 259 % of control

**Q.** What about the T/C (dose: 20.0 mg/kg/injection, schedule: Q04DX003 (ip)) of the same compound?
**A.** 245 % of control

**Q.** And the T/C (dose: 25.0 mg/kg/injection, schedule: Q01DX009 (ip))?
**A.** 300 % of control

**Q.** And the T/C (dose: 25.0 mg/kg/injection, schedule: Q04DX003 (ip))?
**A.** 272 % of control

**Q.** What about the T/C (dose: 30.0 mg/kg/injection, schedule: Q04DX003 (ip)) of the same compound?
**A.** 250 % of control and 272 % of control

**Q.** And the T/C (dose: 44.0 mg/kg/injection, schedule: Q04DX003 (ip))?
**A.** 250 % of control

**Q.** What about the T/C (dose: 50.0 mg/kg/injection, schedule: Q01DX009 (ip)) of the same compound?
**A.** 210 % of control

**Q.** And the T/C (dose: 50.0 mg/kg/injection, schedule: Q04DX003 (ip))?
**A.** 254 % of control

**Q.** And the T/C (dose: 66.0 mg/kg/injection, schedule: Q04DX003 (ip))?
**A.** 241 % of control and 250 % of control

**Q.** What about the T/C (dose: 100.0 mg/kg/injection, schedule: Q04DX003 (ip)) of the same compound?
**A.** 233 % of control and 254 % of control and 260 % of control

**Q.** And the T/C (dose: 150.0 mg/kg/injection, schedule: Q01DX009 (ip))?
**A.** 115 % of control

**Q.** And the T/C (dose: 150.0 mg/kg/injection, schedule: Q04DX003 (ip))?
**A.** 175 % of control

**Q.** And the T/C (dose: 200.0 mg/kg/injection, schedule: Q04DX003 (ip))?
**A.** 260 % of control and 272 % of control

**Q.** And the T/C (dose: 400.0 mg/kg/injection, schedule: Q01DX009 (ip))?
**A.** 115 % of control

**Q.** And the T/C (dose: 400.0 mg/kg/injection, schedule: Q04DX003 (ip))?
**A.** 234 % of control and 177 % of control

**Q.** What about the T/C (dose: 600.0 mg/kg/injection, schedule: Q04DX003 (ip)) of the same compound?
**A.** 272 % of control
